Measurements reported in patent US20240228488A1 (TAKEDA PHARMACEUTICAL COMPANY LIMITED, priority 2021, published 2024).

What was measured:
plasma kallikrein = molecular target: T1, plasma kallikrein (Homo sapiens, UniProt P03952); assay: Neat human plasma assay, FXIIa contact pathway-activated, PFR-AMC substrate; assay type: biochemical; conditions: citrated human plasma 78% final, 10 nM human FXIIa, 100 μM PFR-AMC; read-out: Human Plasma Assay: IC90
T1 construct: from tissue
How it was run: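 Compound inhibition of plasma kallikrein measured as PFR-AMC (100 μM) cleavage rate over 5 min at room temperature in 78% citrated human plasma activated with 10 nM FXIIa (Tris pH 7.5 buffer). IC50/IC90 from 4-parameter fit of rate versus inhibitor concentration.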

[1] = molecular target: human activated kallikrein enzyme (Homo sapiens, UniProt P03952); assay: Plasma kallikrein inhibition, fluorogenic PFR-AMC substrate, 500 pM activated kallikrein format; assay type: biochemical; conditions: 500 pM activated kallikrein, 300 uM PFR-AMC, 30 min preincubation, 10 min reaction; read-out: Primary Dose Response Assay: Average EC50
How it was run: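 Fluorogenic readout (ex 380 / em 460 nm) after 10 min room-temperature reaction with 300 uM Pro-Phe-Arg-AMC substrate, following 30 min preincubation of inhibitors with 500 pM enzyme. Buffer: Tris pH 7.5, EDTA, NaCl, PEG-400, Triton X-100. Values given as EC50 ranges.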

human activated kallikrein enzyme, sequence (P03952 391-638 limits assumed): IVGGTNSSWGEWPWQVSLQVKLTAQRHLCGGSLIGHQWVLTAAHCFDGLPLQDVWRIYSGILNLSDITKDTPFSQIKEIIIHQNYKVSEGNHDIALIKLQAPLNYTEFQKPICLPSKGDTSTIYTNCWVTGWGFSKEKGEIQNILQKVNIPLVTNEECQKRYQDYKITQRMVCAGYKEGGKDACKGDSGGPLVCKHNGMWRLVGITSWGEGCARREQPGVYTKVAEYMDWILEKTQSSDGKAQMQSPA
human activated kallikrein enzyme, sequence (P03952 20-390 partner limits assumed): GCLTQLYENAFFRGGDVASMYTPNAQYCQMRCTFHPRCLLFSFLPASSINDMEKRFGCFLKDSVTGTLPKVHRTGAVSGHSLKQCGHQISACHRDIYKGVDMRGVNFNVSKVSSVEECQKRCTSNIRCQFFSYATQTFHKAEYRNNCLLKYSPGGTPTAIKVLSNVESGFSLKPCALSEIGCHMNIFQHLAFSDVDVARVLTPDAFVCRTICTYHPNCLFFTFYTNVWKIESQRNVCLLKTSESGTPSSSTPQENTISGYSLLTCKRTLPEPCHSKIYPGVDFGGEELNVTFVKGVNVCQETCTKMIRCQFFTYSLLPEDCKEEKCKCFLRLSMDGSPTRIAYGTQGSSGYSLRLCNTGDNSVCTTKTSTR
T1 sequence (P03952 391-638 limits assumed): as the sequence (P03952 391-638 limits assumed) above
T1 sequence (P03952 20-390 partner limits assumed): as the sequence (P03952 20-390 partner limits assumed) above

Compound | IC90 (plasma kallikrein) [nM] | EC50 [1] [nM]
O=C(Nc1cc(NCc2cn3cc(C4CC4)cc(N4CCCC4=O)c3n2)ncn1)[C@H]1C[C@@H]1c1cccc(Cl)c1 [Example 144, (1S,2S)-2-(3-chlorophenyl)-N-(6-(((6-cyclopropyl-8-(2-oxopyrrolidin-1-yl)imidazo[1,2-a]pyridin-2-yl)methyl)amino)pyrimidin-4-yl)cyclopropane-1-carboxamide] | 400 to 1500 | < 1
CC(=O)N(C)c1cc(C2CC2)cn2cc(CNc3cc(NC(=O)[C@H]4C[C@@H]4c4cccc(Cl)c4)ncn3)nc12 [Example 274, (1S,2S)-2-(3-chlorophenyl)-N-(6-(((6-cyclopropyl-8-(N-methylacetamido)imidazo[1,2-a]pyridin-2-yl)methyl)amino)pyrimidin-4-yl)cyclopropane-1-carboxamide] | 1500 to 10000 | 1 to 10
CC(=O)Nc1cc(C2CC2)cn2cc(CNc3cc(NC(=O)[C@H]4C[C@@H]4c4cccc(Cl)c4)ncn3)nc12 [Example 275, (1S,2S)—N-(6-(((8-acetamido-6-cyclopropylimidazo[1,2-a]pyridin-2-yl)methyl)amino)pyrimidin-4-yl)-2-(3-chlorophenyl)cyclopropane-1-carboxamide] | 1500 to 10000 | 1 to 10
Cc1ccnc([C@H]2C[C@@H]2C(=O)Nc2cc(N[C@H](C)c3cn4cc(C5CC5)cc(N5CC(=O)N(C)C5=O)c4n3)nc(OCCN(C)C)n2)n1 [Example 276, (1S,2S)—N-(6-(((R)-1-(6-cyclopropyl-8-(3-methyl-2,4-dioxoimidazolidin-1-yl)imidazo[1,2-a]pyridin-2-yl)ethyl)amino)-2-(2-(dimethylamino)ethoxy)pyrimidin-4-yl)-2-(4-methylpyrimidin-2-yl)cyclopropane-1-carboxamide] | < 400 | < 1
CC(O)c1cc(C2CC2)cn2cc(CNc3cc(NC(=O)[C@H]4C[C@@H]4c4cccc(Cl)c4)ncn3)nc12 (stereo partly drawn) [Example 281, (1S,2S)-2-(3-chlorophenyl)-N-(6-(((6-cyclopropyl-8-(1-hydroxyethyl)imidazo[1,2-a]pyridin-2-yl)methyl)amino)pyrimidin-4-yl)cyclopropane-1-carboxamide] | 10000 to 48000 | 1 to 10
O=C(Nc1cc(N2C[C@@H](O)C[C@@H]2c2cn3cc(C4CC4)ccc3n2)ccn1)[C@H]1C[C@@H]1c1cccc(Cl)c1 [Example 282, (1S,2S)-2-(3-chlorophenyl)-N-(4-((2R,4S)-2-(6-cyclopropylimidazo[1,2-a]pyridin-2-yl)-4-hydroxypyrrolidin-1-yl)pyridin-2-yl)cyclopropane-1-carboxamide] | 1500 to 10000 | 1 to 10
O=C(Nc1cc(N2C[C@@H](O)C[C@@H]2c2cn3cc(C4CC4)ccc3n2)ncn1)[C@H]1C[C@@H]1c1cccc(Cl)c1 [Example 283, (1S,2S)-2-(3-chlorophenyl)-N-(6-((2R,4S)-2-(6-cyclopropylimidazo[1,2-a]pyridin-2-yl)-4-hydroxypyrrolidin-1-yl)pyrimidin-4-yl)cyclopropane-1-carboxamide] | 1500 to 10000 | 1 to 10
O=C(Nc1cc(NCc2cn3cc(C4CC4)cc(C4CNC4)c3n2)ccn1)[C@H]1C[C@@H]1c1cccc(Cl)c1 [Example 284, (1S,2S)—N-(4-(((8-(azetidin-3-yl)-6-cyclopropylimidazo[1,2-a]pyridin-2-yl)methyl)amino)pyridin-2-yl)-2-(3-chlorophenyl)cyclopropane-1-carboxamide] | < 400 | < 1
CN1CCN(c2cc(C3CC3)cn3cc(CNc4cc(NC(=O)[C@H]5C[C@@H]5c5cccc(Cl)c5)nc(O)n4)nc23)CC1 [Example 285, (1S,2S)-2-(3-chlorophenyl)-N-(6-(((6-cyclopropyl-8-(4-methylpiperazin-1-yl)imidazo[1,2-a]pyridin-2-yl)methyl)amino)-2-hydroxypyrimidin-4-yl)cyclopropane-1-carboxamide] | < 400 | < 1
O=C(Nc1cc(NCc2cn3cc(C4CC4)cc(COCCO)c3n2)ccn1)[C@H]1C[C@@H]1c1cccc(Cl)c1 [Example 288, (1S,2S)-2-(3-chlorophenyl)-N-(4-(((6-cyclopropyl-8-((2-hydroxyethoxy)methyl)imidazo[1,2-a]pyridin-2-yl)methyl)amino)pyridin-2-yl)cyclopropane-1-carboxamide] | 1500 to 10000 | < 1

Continued, values first:

IC90 (plasma kallikrein) [nM] | EC50 [1] [nM] | Compound
400 to 1500 | < 1 | CN(c1cc(C2CC2)cn2cc(CNc3ccnc(NC(=O)[C@H]4C[C@@H]4c4cccc(Cl)c4)c3)nc12)S(C)(=O)=O [Example 128, (1S,2S)-2-(3-chlorophenyl)-N-(4-(((6-cyclopropyl-8-(N-methylmethylsulfonamido)imidazo[1,2-a]pyridin-2-yl)methyl)amino)pyridin-2-yl)cyclopropane-1-carboxamide]
1500 to 10000 | < 1 | O=C(Nc1cc(NCc2cn3cc(C4CC4)cc(N4CCOCC4)c3n2)ccn1)[C@H]1C[C@@H]1c1cccc(Cl)c1 [Example 129, (1S,2S)-2-(3-chlorophenyl)-N-(4-(((6-cyclopropyl-8-morpholinoimidazo[1,2-a]pyridin-2-yl)methyl)amino)pyridin-2-yl)cyclopropane-1-carboxamide]
400 to 1500 | < 1 | CN1CCN(c2cc(C3CC3)cn3cc(CNc4ccnc(NC(=O)[C@H]5C[C@@H]5c5cccc(Cl)c5)c4)nc23)CC1=O [Example 130, (1S,2S)-2-(3-chlorophenyl)-N-(4-(((6-cyclopropyl-8-(4-methyl-3-oxopiperazin-1-yl)imidazo[1,2-a]pyridin-2-yl)methyl)amino)pyridin-2-yl)cyclopropane-1-carboxamide]
400 to 1500 | < 1 | O=C(Nc1cc(NCc2cn3cc(C4CC4)cc(N4CCNCC4)c3n2)ccn1)[C@H]1C[C@@H]1c1cccc(Cl)c1 [Example 132, (1S,2S)-2-(3-chlorophenyl)-N-(4-(((6-cyclopropyl-8-(piperazin-1-yl)imidazo[1,2-a]pyridin-2-yl)methyl)amino)pyridin-2-yl)cyclopropane-1-carboxamide]
400 to 1500 | < 1 | O=C(Nc1cc(NCc2cn3cc(C4CC4)cc(C4(F)CNC4)c3n2)ccn1)[C@H]1C[C@@H]1c1cccc(Cl)c1 [Example 133, (1S,2S)-2-(3-chlorophenyl)-N-(4-(((6-cyclopropyl-8-(3-fluoroazetidin-3-yl)imidazo[1,2-a]pyridin-2-yl)methyl)amino)pyridin-2-yl)cyclopropane-1-carboxamide]
< 400 | < 1 | O=C(Nc1cc(NCc2cn3cc(C4CC4)cc(C4(O)CNC4)c3n2)ccn1)[C@H]1C[C@@H]1c1cccc(Cl)c1 [Example 134, (1S,2S)-2-(3-chlorophenyl)-N-(4-(((6-cyclopropyl-8-(3-hydroxyazetidin-3-yl)imidazo[1,2-a]pyridin-2-yl)methyl)amino)pyridin-2-yl)cyclopropane-1-carboxamide]
< 400 | < 1 | O=C(Nc1cc(NCc2cn3cc(C4CC4)cc(C(O)C4CNC4)c3n2)ccn1)[C@H]1C[C@@H]1c1cccc(Cl)c1 (stereo partly drawn) [Example 135, (1S,2S)—N-(4-(((8-(-azetidin-3-yl(hydroxy)methyl)-6-cyclopropylimidazo[1,2-a]pyridin-2-yl)methyl)amino)pyridin-2-yl)-2-(3-chlorophenyl)cyclopropane-1-carboxamide]
1500 to 10000 | < 1 | O=C(Nc1cc(N(CCO)Cc2cn3cc(C4CC4)ccc3n2)ccn1)[C@H]1C[C@@H]1c1cc(Cl)ccn1 [Example 137, (1S,2S)-2-(4-chloropyridin-2-yl)-N-(4-(((6-cyclopropylimidazo[1,2-a]pyridin-2-yl)methyl)(2-hydroxyethyl)amino)pyridin-2-yl)cyclopropane-1-carboxamide]
< 400 | < 1 | CN1CCN(c2cc(C3CC3)cn3cc(CNc4ccnc(NC(=O)[C@H]5C[C@@H]5c5cccc(Cl)c5)c4)nc23)CC1 [Example 138, (1S,2S)-2-(3-chlorophenyl)-N-(4-(((6-cyclopropyl-8-(4-methylpiperazin-1-yl)imidazo[1,2-a]pyridin-2-yl)methyl)amino)pyridin-2-yl)cyclopropane-1-carboxamide]
400 to 1500 | < 1 | CC(=O)N(C)c1cc(C2CC2)cn2cc(CNc3ccnc(NC(=O)[C@H]4C[C@@H]4c4cccc(Cl)c4)c3)nc12 [Example 139, (1S,2S)-2-(3-chlorophenyl)-N-(4-(((6-cyclopropyl-8-(N-methylacetamido)imidazo[1,2-a]pyridin-2-yl)methyl)amino)pyridin-2-yl)cyclopropane-1-carboxamide]
400 to 1500 | < 1 | CN1CC2(C1)CN(c1cc(C3CC3)cn3cc(CNc4ccnc(NC(=O)[C@H]5C[C@@H]5c5cccc(Cl)c5)c4)nc13)C2 [Example 140, (1S,2S)-2-(3-chlorophenyl)-N-(4-(((6-cyclopropyl-8-(6-methyl-2,6-diazaspiro[3.3]heptan-2-yl)imidazo[1,2-a]pyridin-2-yl)methyl)amino)pyridin-2-yl)cyclopropane-1-carboxamide]
1500 to 10000 | < 1 | CC(=O)Nc1cc(C2CC2)cn2cc(CNc3ccnc(NC(=O)[C@H]4C[C@@H]4c4cccc(Cl)c4)c3)nc12 [Example 142, (1S,2S)-N-(4-(((8-acetamido-6-cyclopropylimidazo[1,2-a]pyridin-2-yl)methyl)amino)pyridin-2-yl)-2-(3-chlorophenyl)cyclopropane-1-carboxamide]
